“And” between values parts separate entries of the source, which are not always exact repeats. Equal entries are not always repeated.
Tests used:
[1] = target: T1, TTR in human blood plasma (Homo sapiens, UniProt P02766); test: plasma TTR binding selectivity, antibody capture method; details: inhibitor 10.8 μM, 24 h, 37° C.
T1 construct: from tissue; host or cells: human blood plasma
Procedure: Inhibitor binding selectivity to TTR in human blood plasma was assessed using a previously established antibody capture method (Purkey, H. E.; et al. Proc. Natl. Acad. Sci. USA 2001, 98, 5566-5571). In this evaluation, inhibitors (10.8 μM, ˜2-3× the natural concentration of TTR) are incubated in human blood plasma for 24 h at 37° C. Quenched sepharose resin is then added to the plasma to remove any small molecules that would bind to the resin as opposed to TTR. TTR and any TTR-bound small molecule is then immunocaptured using a polyclonal TTR antibody covalently attached to sepharose resin. After washing the resin (5×10 min washes), the antibody-TTR complex is dissociated at high pH and analyzed by RP-HPLC. The relative stoichiometry between TTR and inhibitor is then calculated from their HPLC peak areas using standard curves.
The procedures used for bacterial expression of TTR (Lai, Z.; et al. Biochemistry 1996, 35, 6470-6482), the stagnant fibril formation assay (Colon, W.; Kelly, J. W. Biochemistry 1992, 31, 8654-8660; Lai, Z.; et al. Biochemistry 1996, 35, 6470-6482), the blood plasma binding selectivity assay (Purkey, H. E.; et al. Proc. Natl. Acad. Sci. USA 2001, 98, 5566-5571), and analytical ultracentrifugation (Lashuel, H. A.; et al. Biochemistry 1998, 37, 17851-17864) have all been described in detail previously.

[2] = target: T2, WT-TTR (Homo sapiens, UniProt P02766); details: inhibitor 7.2 μM, WT-TTR 3.6 μM, pH 4.4, 72 h; cited from earlier work
T2 construct: made in house

[3] = precipitation of small molecules under acid-mediated amyloidogenic conditions in the absence of TTR; format: physicochemical; details: 3.6 μM, pH 4.4, 37° C., 72 h
Procedure: TTR amyloid inhibition efficacy was probed using a stagnant fibril formation assay described previously, wherein partial denaturation was triggered by acidification (pH 4.4, 37° C.) (Colon, W.; Kelly, J. W. Biochemistry 1992, 31, 8654-8660). Briefly, a test compound (7.2 or 3.6 μM) is incubated with TTR (3.6 μM) for 30 min in pH 7 buffer. Amyloidogenesis is then initiated by lowering to pH 4.4, where maximal fibril formation is observed with WT-TTR after 72 h (37° C.). […] From experience we know that excellent inhibitors allow <10% fibril formation at a small molecule concentration of 7.2 μM and <40% fibril formation at a concentration equal to that of WT-TTR (3.6 μM) (Hammarstrom, P.; et al. Science 2003, 299, 713-716; Klabunde, T.; et al. Nature Struct. Biol. 2000, 7, 312-321; Razavi, H.; et al. Angew Chem 2003, 42, 2758-2761; Miroy, G. J.; et al. Proc. Natl. Acad. Sci. USA 1996, 93, 15051-15056; Peterson, S. A.; et al. Proc. Natl. Acad. Sci. USA 1998, 95, 12956-12960; Baures, P. W.; et al. Bioorg. Med. Chem. 1998, 6, 1389-1401; Baures, P. W.; et al. Bioorg. Med. Chem. 1999, 7, 1339-1347; Petrassi, H. M.; et al. J. Am. Chem. Soc. 2000, 122, 2178-2192; McCammon, M. G.; et al. Structure 2002, 10, 851-863; Oza, V. B.; et al. J. Med. Chem. 2002, 45, 321-332; Saccheftini, J. C.; et al. Nature Rev. Drug Disc. 2002, 1, 267-275; Green, N. S.; et al. J. Am. Chem. Soc. 2003, 125, 13404-13414; Adamski-Werner, S. L.; et al. J. Med. Chem. 2004, 47, 355-374; Miller Sean, R.; et al. Lab. Inv. 2004, 84, 545-552). […] Therefore, when both the ligand and TTR are at equal concentrations, a population of TTR•I, TTR•I2 and unliganded TTR is observed, dictated by the dissociation constants. It is now established by other studies that inhibitor occupancy of only one of the two TTR binding sites is sufficient to stabilize the entire tetramer against amyloidogenesis (Wiseman, R. L.; et al. J. Am. Chem. Soc. 2005, in press). This is further supported by the observation herein that twenty-six of these dibenzofurans are excellent TTR amyloidogenesis inhibitors (<40% fibril formation) at a concentration equal to that of TTR (3.6 μM each, FIG. 3).

[4] = target: T3, TTR (Homo sapiens, UniProt P02766); test: analytical ultracentrifugation of TTR quaternary structure under amyloidogenic conditions; details: 27 at 7.2 μM, TTR 3.6 μM, 72 h at pH 4.4, 37° C.; tetramer expected 55.0 kDa
T3 construct: made in house
Procedure: To ensure that these C1-arylated dibenzofurans inhibit TTR fibril formation by native state stabilization (i.e. tetramer stabilization), we studied the TTR quaternary structure by analytical ultracentrifugation after a preincubation period of 72 h under amyloidogenic conditions (pH 4.4, 37° C.). […] In the absence of 27, TTR aggregated into very high molecular weight oligomers that sedimented rapidly in the ultracentrifugation experiment (data not shown). […]
(§1) FIG. 8 is a plot of the absorbance at 280 nm versus distance from the center in the sedimentation velocity study on TTR ([…]) after being preincubated with 27 ([…]) and after another incubation period where the pH was dropped to 4.4 for 72 h, a time frame that results in maximal amyloid formation in the absence of inhibitor. […]
as §1, with “FIG. 9” for “FIG. 8”, “the equilibrium ultracentrifugation studies” for “the sedimentation velocity study”

[5] = target: T4, WT-TTR tetramer (Homo sapiens, UniProt P02766); test: time course analysis of WT-TTR tetramer dissociation by linked monomer unfolding in urea; format: biochemical; details: inhibitor 7.2 and 3.6 μM, TTR 3.6 μM, far-UV CD
T4 construct: made in house
Description: The ability of these inhibitors to impose kinetic stability on tetrameric TTR is best evaluated by assessing the rate of TTR tetramer dissociation (Hammarstrom, P.; et al. Science 2003, 299, 713-716; Hammarstrom, P.; et al. Proc. Natl. Acad. Sci. USA 2002, 99, 16427-16432). Under acidic conditions tetramer dissociation leads to amyloidogenesis, whereas in the presence of chaotropes (6M urea), tetramer dissociation leads to monomer unfolding. The influence of inhibitors 25, 47 and 64, representing the three structural classes of dibenzofuran-based inhibitors, on the rates of tetramer dissociation under acid- and urea-mediated denaturing conditions was probed. […] The rate of TTR tetramer dissociation in 6M urea is easily monitored by linking the slow quaternary structural changes to rapid tertiary structural changes that are easily monitored by spectroscopic methods (Hammarstrom, P.; et al. Proc. Natl. Acad. Sci. USA 2002, 99, 16427-16432).
Time course analysis of WT-TTR tetramer dissociation inhibition by compounds 25, 47, and 64 evaluated by linked-monomer unfolding in urea. Compounds 25, 47, and 64 were dissolved in DMSO to provide 10 mM primary stock solutions, from which 10-fold EtOH dilutions yielded 1 mM secondary stock solutions. 200 μL of 1.0 mg/mL (18 μM) WT-TTR solution (50 mM sodium phosphate, 100 mM KCl, and 1 mM EDTA, pH 7.2), and either 7.2 or 3.6 μL (2× and 1×, respectively) of 1 mM inhibitor secondary stock solutions were added to 2 mL eppendorf tubes, vortexed briefly, and incubated for 15 min at 25° C. 100 μL of the TTR•inhibitor solutions were added to 900 μL of urea buffer (6.67 M urea, 50 mM sodium phosphate, 100 mM KCl, 1 mM EDTA, pH 7.2), and the final 1 mL solutions were vortexed again and incubated in the dark at 25° C. without agitation. At 0, 4, 11, 24, 49, 73, 97, 122, 146, and 170 h time points after mixing with urea, the circular dichroism spectra were measured between […], with scanning every 0.5 nm and averaging for 5 s. […] Control samples containing 7.2 μL of 10% DMSO in EtOH were prepared and analyzed as above for comparison. […] TTR tetramer dissociation is linked to the rapid (˜500,000× faster) monomer denaturation as measured through this β-sheet loss (Hammarstrom, P.; et al. Proc. Natl. Acad. Sci. USA 2002, 99, 16427-16432).
FIG. 11 is a plot of the timecourse analysis of WT-TTR (3.6 μM) tetramer dissociation (6.0 M urea) in the absence (▴) and presence of 7.2 μM (⋄) and 3.6 μM (◯) concentrations of inhibitors 25, 47, and 64 (see color scheme within Figure to differentiate inhibitors). Slow tetramer dissociation is not detectable by far-UV CD spectroscopy, but this process is linked to rapid (˜500,000× faster) monomer denaturation as monitored by loss of β-sheet content easily followed by circular dichroism spectroscopy. […]

[6] = target: T2, WT-TTR; test: time course analysis of WT-TTR fibril formation inhibition; format: biochemical
Procedure: Time course analysis of WT-TTR fibril formation inhibition by compounds 25, 47, and 64. Compounds 25, 47, and 64 were dissolved in DMSO to provide 7.2 mM primary stock solutions (10× stocks), from which 5- and 10-fold DMSO dilutions yielded 1.44 mM (2×) and 0.72 mM (1×) secondary stock solutions, respectively. 495 μL of 0.4 mg/mL (7.2 μM) WT-TTR solution (10 mM sodium phosphate, 100 mM KCl, and 1 mM EDTA, pH 7.2), and 5 μL of either the 1.44 or 0.72 mM inhibitor secondary stock solutions were added to disposable UV cuvettes, vortexed briefly, then incubated for 30 min at 25° C. The pH was then adjusted to 4.4 with addition of 500 μL of acidic buffer (100 mM acetate, 100 mM KCl, 1 mM EDTA, pH 4.2), and the final 1 mL solutions were vortexed again and incubated in the dark at 37° C. without agitation. At 0, 4, 8, 12, 25, 49, 74, 100, 122, 145, and 169 h time points after acidification, the solutions were vortexed and the turbidity at 500 nm was measured. Control samples containing 5 μL of pure DMSO were prepared and analyzed as above for comparison. Small molecule and TTR control samples were prepared in groups of 10 to prevent disturbance of the cuvettes during incubation. Samples were discarded after their turbidities were measured.
FIG. 10 is a plot of the timecourse analysis of WT-TTR (3.6 μM) fibril formation mediated by partial acid denaturation in the absence (▴) and presence of 7.2 μM (⋄) and 3.6 μM (◯) inhibitors 25, 47, and 64, as measured by turbidity at 500 nm (see color scheme within Figure to differentiate inhibitors). It is hard to discern which compound is most efficacious in the black and white plot.

Row | SMILES | binding selectivity to TTR in human blood plasma [1] | decrease of the extent of WT-TTR amyloid formation [2] [%] | precipitation in the absence of TTR [3] | hydrodynamic molecular weight of TTR by equilibrium analytical ultracentrifugation [4] | hydrodynamic molecular weight of TTR by sedimentation velocity [4] | rate of TTR tetramer dissociation in 6M urea [5] | order of fibrils formed at the end of the time course ([6]; after 169 hours, FIG. 10) | rate of TTR amyloidogenesis mediated by partial acidification relative to control ([6]; inhibitor 7.2 and 3.6 μM, WT-TTR 3.6 μM, pH 4.4, turbidity at 500 nm)
1 | O=C(O)c1cccc2c1oc1c(C(=O)O)cccc12 [Compound 1, dibenzofuran-4,6-dicarboxylic acid, reference compound] | no measurable binding selectivity | 90 |  |  |  |  |  | 
2 | O=C(O)c1cccc2c1oc1c(C(=O)O)ccc(Nc3cccc(Cl)c3)c12 [Compound 27] |  |  | no measurable precipitation | 55.1±0.4 kDa and 55.0±0.2 kDa | 57.1±0.3 kDa and 57.1±0.2 kDa |  |  | 
3 | O=C(O)c1cccc2c1oc1c(C(=O)O)ccc(Oc3cc(Cl)cc(Cl)c3)c12 [Compound 47] |  |  | no measurable precipitation |  |  | markedly slowed in a dose-dependent fashion | shows the most fibrils formed | dramatically slowed in a dose-dependent fashion

— patent US20050261365A1, “Transthyretin stabilization” (The Scripps Research Institute, priority 2004, published 2005)
